# Paper PMC10661773, “Cytotoxic pathways activated by multifunctional thiosemicarbazones targeting sigma-2 receptors in breast and lung carcinoma cells” (Pharmacological Reports, 2023)
# How the values were obtained:
# MCF7 and A549 cell lines = experiment: Cytotoxic activity across the two tumor cell lines (MTT); type: cell-based; conditions: Homo sapiens; MCF7 and A549, MTT 48 h; read-out: EC50 range in the two tumor cell lines
# Protocol: Human MCF7 breast adenocarcinoma (#HTB-22) and human A549 carcinoma (#CCL-85) cell lines, non-tumor human breast (MCF10A, #CRL-10317) and lung (BEAS-2B, #CRL-9482) cells were obtained from American Type Culture Collection (ATCC, Bethesda, MD). MCF7 cells were cultured in DMEM medium (Gibco Thermo Scientific, Waltham, MA; #10,565,018), A549 in HAM’s F12 medium (Gibco Thermo Scientific; #11,765,054), and BEAS-2B in RPMI-1640 medium (Gibco Thermo Scientific; # 61,870,010), all supplemented with 10% v/v fetal bovine serum (FBS; Sigma, St. Louis, MO; #F4135) and 1% v/v penicillin–streptomycin (Sigma; #P4458). MCF10A cells were cultured in DMEM/F12 medium (Gibco Thermo Scientific; #31,331,028) supplemented with 5% v/v horse serum (Sigma; #H1270) and 1% v/v penicillin–streptomycin, 20 ng/mL epidermal growth factor (Sigma, #E4127), 10 µg/mL insulin (Sigma, #I3536), […] hydrocortisone (Sigma, #H0888), 100 ng/mL cholera toxin (Sigma, #C8052). Cells were kept in a humidified incubator at 37 °C with 5% CO2.
# Cell growth was determined using the MTT assay at 48 h. On day 1, 25,000 cells/well were seeded into 96-well plates in a volume of 100 μL. […] Formazan crystals were solubilized using 100 μl of DMSO/EtOH (1:1) and absorbance values at 570 and 630 nm were determined on the microplate reader Victor 3 from PerkinElmer Life Sciences (Waltham, MA).
# caspase 7 in A549 cells = experiment: Caspase 7 activity, fluorimetric; type: cell-based, human; conditions: A549, 2 h, 50 µM
# Protocol: (§1) Activation of caspase 3, caspase 7 and caspase 9 was measured using the Caspase 3/7 Fluorescence Assay kit (Cayman Chemical, Ann Arbor, MI; #10,009,135) and the Caspase 9 fluorimetric assay kit (Enzo Life Science, Roma, Italy; #ALX-850-224). The results were expressed as nmoles of the hydrolyzed substrate of each caspase/mg cellular proteins, according to a previously set titration curve.
# caspase 7 in MCF7 cells = experiment: Caspase 7 activity, fluorimetric; type: cell-based, human; conditions: MCF7, 2 h, 50 µM
# Protocol: as §1
# caspase 9 in A549 cells = experiment: Caspase 9 activity, fluorimetric; type: cell-based, human; conditions: A549, 2 h, 50 µM
# Protocol: as §1
# caspase 9 in MCF7 cells = experiment: Caspase 9 activity, fluorimetric; type: cell-based, human; conditions: MCF7, 2 h, 50 µM
# Protocol: as §1
# [1] = system: GRP78, ATF6, IRE1, PERK in A549 cells; experiment: ER stress markers, qRT-PCR and immunoblotting; type: cell-based, human; conditions: A549, 2 h, 50 µM
# Protocol: (§2) 1 μg total RNA was reverse-transcribed using the iScript Reverse Transcription Supermix kit (Bio-Rad Laboratories, Hercules, CA; #1,708,840), according to the manufacturer’s instruction. 25 ng cDNA were amplified with 10 μL IQ™ SYBR Green Supermix (Bio-Rad Laboratories, # 1708880B05). Primers were designed with the qPrimer Depot software (http://primerdepot.nci.nih.gov/). qRT-PCR was carried out with a CFX96™ Real-Time Detector System (Bio-Rad Laboratories). Cycling conditions were: 30 s at 95 °C, followed by 40 cycles of denaturation (15 s at 95 °C), annealing/extension (30 s at 60 °C). The same cDNA preparation was used to quantify the genes of interest and the housekeeping gene S14, used to normalize gene expression. The relative quantitation of each sample was carried out using the Gene Expression Quantitation software (Bio-Rad Laboratories). Results were expressed in arbitrary units. For each gene, the expression in untreated cells was assumed to be “1”.
# (§3) Cells were rinsed with ice-cold lysis buffer (50 mM, Tris, 10 mM EDTA, 1% v/v Triton-X100), supplemented with the protease inhibitor cocktail set III (80 μM aprotinin, 5 mM bestatin, 1.5 mM leupeptin, 1 mM pepstatin; Sigma, # 535,140), 2 mM phenylmethylsulfonyl fluoride (Sigma: #P7626) and 1 mM Na3VO4, (Sigma; #S6508) then sonicated and centrifuged at 13,000 × g for 10 min at 4 °C. 20 μg protein extracts were subjected to SDS–PAGE and probed with the antibodies for: GRP78 (#ab21685), ATF6 (#ab122897), IRE-1 (#ab37073), PERK (#ab65142), actin (#ab1801) (all from Abcam, Cambridge, UK), followed by a peroxidase-conjugated secondary antibody (Bio-Rad Laboratories). The membranes were washed with Tris-buffered saline-Tween 0.1% v/v solution, and the proteins were detected by enhanced chemiluminescence (Bio-Rad Laboratories, #1,705,061). The densitometric analysis was performed using the ImageJ software (https://imagej.nih.gov/), calculating the ratio protein of interest/actin band density, putting actin band density as 1 relative unit in each condition. Densitometric analysis and whole blots are included as Supporting Information.
# [2] = system: GRP78, ATF6, IRE1, PERK in MCF7 cells; experiment: ER stress markers, qRT-PCR and immunoblotting; type: cell-based, human; conditions: MCF7, 2 h, 50 µM
# Protocol: as §2, §3
# A549 cells [3] = experiment: Mitochondrial ROS, MitoSOX staining; type: cell-based, human; conditions: A549, 2 h, 50 µM
# Protocol: (§4) Intramitochondrial reactive oxygen species (ROS) were measured using the MitoSOX fluorescent probe (Invitrogen ThermoScientific, # M36008), according to the manufacturer’s instructions. For total ROS, cells were incubated with 5 µmol/L of 5-(and-6)-chlorometyl-20,70-dichlorodihydro-fluorescein diacetate-acetoxymethyl ester (DCFDA-AM, Sigma, #21,884), as described by Riganti et al. 2015 [21]. The results are expressed as nmoles/mg mitochondrial or cellular proteins, respectively.
# MCF7 cells [4] = experiment: Mitochondrial ROS, MitoSOX staining; type: cell-based, human; conditions: MCF7, 2 h, 50 µM
# Protocol: as §4
# A549 cells [5] = experiment: Mitochondrial depolarization, JC-1 staining; type: cell-based, human; conditions: A549, 2 h, 50 µM
# Protocol: (§5) Staining with the JC-1 fluorescent probe (Biotium Inc., Freemont, CA; #30,001-30001-T) was performed as described in Riganti et al. 2015 [21]. Fluorescence units were used to calculate the percentage of green-fluorescent (i.e., depolarized) mitochondria vs red-fluorescent (i.e., polarized) mitochondria.
# MCF7 cells [6] = experiment: Mitochondrial depolarization, JC-1 staining; type: cell-based, human; conditions: MCF7, 2 h, 50 µM
# Protocol: as §5
compound,measurement,setting,value
"CN(C)C(=S)N/N=C1\C(=O)N(CCCCN2CCC3(CC2)OCc2ccccc23)c2ccccc21 [FA4, (Z)-2-(1-(4-(3H-spiro[isobenzofuran-1,4′-piperidine]-1′-yl)butyl)-2-oxoindolin-3-ylidene)-N,N-dimethylhydrazinecarbothioamide]",EC50,MCF7 and A549 cell lines,1530 to 1840 nM
same,Caspase 7 activation,caspase 7 in A549 cells,activate
same,Caspase 7 activation,caspase 7 in MCF7 cells,activate
same,Caspase 9 activation,caspase 9 in A549 cells,activate
same,Caspase 9 activation,caspase 9 in MCF7 cells,activate
same,Rank order of caspase 9 activation,caspase 9 in MCF7 cells,FA4 > MLP44 > PS3 > ACThio1
same,"Expression of ER stress markers GRP78, ATF6, IRE1, PERK",[1],increased
same,"Expression of ER stress markers GRP78, ATF6, IRE1, PERK",[2],increased
same,Mitochondrial ROS (MitoSOX),A549 cells [3],increased
same,Mitochondrial ROS (MitoSOX),MCF7 cells [4],increased
same,Mitochondrial depolarization (JC-1 staining),A549 cells [5],totally insensitive
same,Mitochondrial depolarization (JC-1 staining),MCF7 cells [6],strong depolarization
